Reference: the NIST ThermoML archive (doi:10.1016/j.fluid.2007.11.005)

Settings: Liquid, Bellows volumetry

CCCCn1cc[n+](C)c1.F[B-](F)(F)F [1-butyl-3-methylimidazolium tetrafluoroborate]
mass density [kg/m3]
Settings | 313.1 K | 332.6 K | 352.6 K | 372.7 K | 392.8 K | 412.9 K | 432.6 K | 452.3 K | 472.2 K
100 kPa | 1191 | – | – | – | – | – | – | – | –
10000 kPa | 1195 | 1182 | 1168 | 1155 | 1142 | 1129 | 1116 | 1102 | 1090
20000 kPa | 1200 | 1186 | 1173 | 1160 | 1148 | 1135 | 1122 | 1108 | 1096
30000 kPa | 1204 | 1191 | 1178 | 1165 | 1153 | 1140 | 1127 | 1115 | 1102
40000 kPa | 1208 | 1195 | 1182 | 1170 | 1158 | 1145 | 1133 | 1120 | 1108
50000 kPa | 1212 | 1200 | 1187 | 1174 | 1163 | 1150 | 1138 | 1126 | 1114
60000 kPa | 1216 | 1204 | 1191 | 1179 | 1167 | 1155 | 1143 | 1131 | 1119
70000 kPa | 1220 | 1208 | 1195 | 1183 | 1172 | 1160 | 1148 | 1136 | 1124
80000 kPa | 1224 | 1212 | 1199 | 1187 | 1176 | 1164 | 1152 | 1140 | 1129
90000 kPa | 1227 | 1215 | 1203 | 1191 | 1180 | 1169 | 1157 | 1145 | 1134
100000 kPa | 1231 | 1219 | 1207 | 1195 | 1184 | 1173 | 1161 | 1150 | 1139
110000 kPa | 1234 | 1223 | 1211 | 1199 | 1188 | 1177 | 1165 | 1154 | 1143
120000 kPa | 1238 | 1226 | 1214 | 1203 | 1192 | 1181 | 1170 | 1158 | 1147
130000 kPa | 1241 | 1229 | 1218 | 1206 | 1195 | 1185 | 1173 | 1162 | 1152
140000 kPa | 1244 | 1233 | 1221 | 1210 | 1199 | 1189 | 1177 | 1166 | 1156
150000 kPa | 1248 | 1236 | 1225 | 1213 | 1203 | 1192 | 1181 | 1170 | 1160
160000 kPa | 1251 | 1239 | 1228 | 1217 | 1206 | 1196 | 1185 | 1174 | 1164
170000 kPa | 1254 | 1243 | 1231 | 1220 | 1210 | 1199 | 1188 | 1177 | 1167
180000 kPa | 1257 | 1246 | 1234 | 1223 | 1213 | 1203 | 1192 | 1181 | 1171
190000 kPa | 1260 | 1249 | 1237 | 1227 | 1216 | 1206 | 1195 | 1185 | 1175
200000 kPa | 1263 | 1252 | 1241 | 1230 | 1220 | 1210 | 1199 | 1188 | 1178
